This note sets out measurements from US20140135310A1, “SULPHONAMIDE DERIVATIVES OF ALICYCLIC AMINES FOR THE TREATMENT OF CENTRAL NERVOUS SYSTEM DISEASES” (Adamed Sp. z o.o., priority 2011, published 2014).

Like-named read-outs stand apart in the source and are kept apart here.

Holding throughout (format): cell-based
For assay [1], the target named is T1, D4 dopaminergic receptors (Homo sapiens, UniProt P21917).
T1 sequence (P21917 1-419): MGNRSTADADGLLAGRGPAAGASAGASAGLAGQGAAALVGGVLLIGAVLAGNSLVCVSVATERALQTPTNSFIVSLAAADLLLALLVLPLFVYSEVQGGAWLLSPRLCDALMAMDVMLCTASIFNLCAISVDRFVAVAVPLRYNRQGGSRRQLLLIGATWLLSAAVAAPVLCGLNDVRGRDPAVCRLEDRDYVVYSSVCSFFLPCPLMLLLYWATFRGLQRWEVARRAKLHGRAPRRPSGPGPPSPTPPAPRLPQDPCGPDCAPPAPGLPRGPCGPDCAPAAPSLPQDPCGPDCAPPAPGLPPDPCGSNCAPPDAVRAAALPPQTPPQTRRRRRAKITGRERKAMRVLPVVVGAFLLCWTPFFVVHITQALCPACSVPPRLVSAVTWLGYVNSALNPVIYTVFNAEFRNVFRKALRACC
The assay is described as follows: Cellular functional assay, D4 dopaminergic receptors. The settings on record: D4.4 (h), CHO cells; for D4 ag [%]: agonism, percent of control specific agonist response (300 nM dopamine for control); for D4 antag [%]: antagonism, stimulus dopamine (100 nM). As for the experimental part: (§1) The results are expressed as a percent of control specific agonist response ((measured specific response/control specific agonist response)×100) obtained in the presence of the test compounds.
(§2) The EC50 values (concentration producing a half-maximal specific response) and IC50 values (concentration causing a half-maximal inhibition of the control specific agonist response) were determined by non-linear regression analysis of the concentration-response curves generated with mean replicate values using Hill equation curve fitting (Y=D+[(A−D)/(1+(C/C50)nH)], where Y=specific response, D=minimum specific response, A=maximum specific response, C=compound concentration, and C50=EC50 or IC50, and nH=slope factor). This analysis was performed using a software developed at Cerep (Hill software) and validated by comparison with data generated by the commercial software SigmaPlot® 4.0 for Windows® (© 1997 by SPSS Inc.).
(§3) For the antagonists, the apparent dissociation constants (Kb) were calculated using the modified Cheng Prusoff equation (Kb=IC50/(1+(A/EC50A)), where A=concentration of reference agonist in the assay, and EC50A=EC50 value of the reference agonist).

Assay [2] deals with 5-HT6 serotoninergic receptors (Homo sapiens, UniProt P50406). The assay is described as follows: Cellular functional assay, 5-HT6 serotoninergic receptors. The settings on record: agonist mode; percent of control specific agonist response. In a few lines:
(§4)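 Responses expressed as percent of control specific agonist response; EC50 or IC50 from Hill-equation nonlinear fits of mean replicate concentration-response curves. For antagonists, Kb derived by modified Cheng-Prusoff using reference agonist concentration and its EC50.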

Assay [3] concerns the target D3 dopaminergic receptors (Homo sapiens, UniProt P35462). Briefly: Cellular functional assay, D3 dopaminergic receptors. As to conditions: D3 (h), CHO cells; for D3 ag [%]: agonism, percent of control specific agonist response (0.3 μM dopamine for control); for D3 antag [%]: antagonism, stimulus dopamine (10 nM). In a few lines: as §4
Assay [4] has as its target D2 dopaminergic receptors (Homo sapiens, UniProt P14416). Briefly: Cellular functional assay, D2 dopaminergic receptors. The settings on record: D2S (h), HEK-293 cells; for D2 ag [%]: agonism, percent of control specific agonist response (3 μM dopamine for control); for D2 antag [%]: antagonism, stimulus dopamine (30 nM). In a few lines: as §4
The target in assay [5] is 5-HT2A serotoninergic receptors (Homo sapiens, UniProt P28223). The assay is described as follows: Cellular functional assay, 5-HT2A serotoninergic receptors. In short, it runs like this: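 Response expressed as percent of control specific agonist response; EC50 or IC50 from Hill-equation non-linear regression on mean replicate values. For antagonists, apparent Kb derived by modified Cheng-Prusoff using reference agonist concentration and its EC50.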
Sequence of 5-HT2A serotoninergic receptors (P28223 whole entry): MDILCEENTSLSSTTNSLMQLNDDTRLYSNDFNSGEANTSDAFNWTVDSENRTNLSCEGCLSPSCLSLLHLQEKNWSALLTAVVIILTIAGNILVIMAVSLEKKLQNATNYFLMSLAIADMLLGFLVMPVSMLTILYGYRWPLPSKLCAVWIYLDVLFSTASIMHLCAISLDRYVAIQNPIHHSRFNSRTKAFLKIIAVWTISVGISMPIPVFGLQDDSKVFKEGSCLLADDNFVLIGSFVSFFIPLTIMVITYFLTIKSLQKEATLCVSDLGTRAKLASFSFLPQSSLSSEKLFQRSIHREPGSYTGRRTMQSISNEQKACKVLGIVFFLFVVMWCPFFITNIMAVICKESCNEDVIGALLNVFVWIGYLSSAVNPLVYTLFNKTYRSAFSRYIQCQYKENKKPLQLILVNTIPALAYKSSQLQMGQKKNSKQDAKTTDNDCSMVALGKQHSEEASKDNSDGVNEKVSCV

The target of assay [6] is T2, 5-HT1A serotoninergic receptors (Homo sapiens, UniProt P08908).
T2 sequence (P08908 1-422): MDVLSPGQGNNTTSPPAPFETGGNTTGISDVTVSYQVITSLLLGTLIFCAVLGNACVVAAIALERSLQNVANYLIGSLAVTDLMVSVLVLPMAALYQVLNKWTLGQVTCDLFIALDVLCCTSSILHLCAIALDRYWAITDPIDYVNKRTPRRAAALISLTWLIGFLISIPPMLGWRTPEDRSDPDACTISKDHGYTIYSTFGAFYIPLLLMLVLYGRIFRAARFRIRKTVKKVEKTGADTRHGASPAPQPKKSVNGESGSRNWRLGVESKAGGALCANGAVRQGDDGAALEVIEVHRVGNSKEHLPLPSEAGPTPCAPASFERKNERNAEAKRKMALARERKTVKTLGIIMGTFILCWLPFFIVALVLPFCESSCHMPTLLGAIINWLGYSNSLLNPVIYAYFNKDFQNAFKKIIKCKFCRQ
The assay is described as follows: Cellular functional assay, 5-HT1A serotoninergic receptors. As to conditions: for 5-HT1A ag [%]: agonist mode, percent of control specific agonist response. How it is done:
as §1, §2, §3

Assay [7] concerns the target T3, 5-HT2C serotoninergic receptors (Homo sapiens, UniProt P28335).
T3 sequence (P28335 33-458): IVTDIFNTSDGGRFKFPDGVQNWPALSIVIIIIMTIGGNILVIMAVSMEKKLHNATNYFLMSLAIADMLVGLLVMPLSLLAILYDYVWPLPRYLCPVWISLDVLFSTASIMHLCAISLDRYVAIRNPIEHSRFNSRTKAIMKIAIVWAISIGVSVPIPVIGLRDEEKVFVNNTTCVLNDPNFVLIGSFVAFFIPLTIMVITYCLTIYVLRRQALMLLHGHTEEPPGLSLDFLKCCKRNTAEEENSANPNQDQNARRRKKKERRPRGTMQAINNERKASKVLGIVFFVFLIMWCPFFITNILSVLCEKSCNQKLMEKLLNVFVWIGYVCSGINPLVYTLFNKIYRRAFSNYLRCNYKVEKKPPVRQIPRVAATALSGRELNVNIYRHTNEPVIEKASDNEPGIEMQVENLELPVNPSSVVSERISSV
Briefly: Cellular functional assay, 5-HT2C serotoninergic receptors. The settings on record: for 5-HT2C ag [%]: agonist mode, percent of control specific agonist response; for 5-HT2C antag [%]: antagonist mode. How it is done:
as §1, §2, §3

The mark [8] stands for this setting: agonist mode, percent of control specific agonist response.

Sequence of D2 dopaminergic receptors (P14416 whole entry): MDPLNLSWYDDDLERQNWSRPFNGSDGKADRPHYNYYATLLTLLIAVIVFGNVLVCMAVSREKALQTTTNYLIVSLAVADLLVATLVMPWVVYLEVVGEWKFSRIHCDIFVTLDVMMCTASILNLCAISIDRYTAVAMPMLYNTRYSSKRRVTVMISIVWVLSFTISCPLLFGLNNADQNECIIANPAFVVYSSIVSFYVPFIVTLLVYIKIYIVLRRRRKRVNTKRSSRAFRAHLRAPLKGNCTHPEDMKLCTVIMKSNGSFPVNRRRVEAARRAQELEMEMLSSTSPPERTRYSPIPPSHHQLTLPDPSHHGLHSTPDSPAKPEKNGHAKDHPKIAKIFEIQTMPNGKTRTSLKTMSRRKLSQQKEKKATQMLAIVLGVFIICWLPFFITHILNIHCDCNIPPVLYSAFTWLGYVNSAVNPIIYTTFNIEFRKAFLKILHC
Sequence of 5-HT6 serotoninergic receptors (P50406 whole entry): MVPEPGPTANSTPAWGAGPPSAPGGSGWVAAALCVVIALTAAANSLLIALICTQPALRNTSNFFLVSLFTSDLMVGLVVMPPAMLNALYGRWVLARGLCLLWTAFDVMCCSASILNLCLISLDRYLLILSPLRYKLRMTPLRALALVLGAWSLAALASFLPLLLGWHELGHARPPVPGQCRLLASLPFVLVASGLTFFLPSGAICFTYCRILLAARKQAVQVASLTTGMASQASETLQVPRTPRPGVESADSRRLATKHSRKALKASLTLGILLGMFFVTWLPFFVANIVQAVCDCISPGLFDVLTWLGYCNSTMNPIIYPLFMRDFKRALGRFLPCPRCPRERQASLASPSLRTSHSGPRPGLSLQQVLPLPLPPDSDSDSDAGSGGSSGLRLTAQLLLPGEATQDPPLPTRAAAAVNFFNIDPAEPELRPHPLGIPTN
Sequence of D3 dopaminergic receptors (P35462 whole entry): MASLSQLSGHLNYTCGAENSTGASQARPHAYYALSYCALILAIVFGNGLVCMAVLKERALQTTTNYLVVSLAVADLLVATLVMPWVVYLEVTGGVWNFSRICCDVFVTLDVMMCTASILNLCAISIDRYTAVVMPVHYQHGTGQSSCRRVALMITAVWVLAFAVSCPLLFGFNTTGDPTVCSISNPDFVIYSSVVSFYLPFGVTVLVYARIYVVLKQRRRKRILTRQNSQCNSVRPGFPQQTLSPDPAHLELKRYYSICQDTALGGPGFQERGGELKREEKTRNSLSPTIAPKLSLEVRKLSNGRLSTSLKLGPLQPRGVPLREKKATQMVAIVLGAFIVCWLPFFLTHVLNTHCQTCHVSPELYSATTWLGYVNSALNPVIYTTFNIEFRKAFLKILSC

For `O=S(=O)(NC1CCN(CCCc2c[nH]c3ccc(F)cc23)C1)c1ccc2ccccc2c1` (stereo not drawn) [Compound 80, N-[1-[3-(5-Fluoro-1H-indol-3-yl)propyl]pyrrolidin-3-yl]naphthalene-2-sulphonamide], in assay [1], the “D4 ag [%]” value turned out to be 6% and the “D4 antag [%]” value was 80%. Also, the “5-HT6 ag [%]” value in assay [2] turned out to be 9%. In assay [3], the “D3 ag [%]” value was 91% and the “D3 antag [%]” value was −5%. Also, in assay [4], the “D2 ag [%]” value turned out to be 33% and the “D2 antag [%]” value was found to be 78%. Moreover, in assay [5], the “5-HT2A ag [%]” value turned out to be 34%. Besides, the “5-HT1A ag [%]” value in assay [6] is 42%.
As to `O=S(=O)(NC1CN(CCOc2cccc3c2OCCO3)C1)c1cccc2ccccc12` [Compound 94, N-[1-[2-(2,3-Dihydro-1,4-benzodioxan-8-yloxy)ethyl]azetidin-3-yl]-naphthalene-1-sulphonamide], in assay [7], the “5-HT2C ag [%]” value came to 92% and the “5-HT2C antag [%]” value is listed as −57%. In addition, in assay [1], the “D4 ag [%]” value is 60% and the “D4 antag [%]” value was 9%. In assay [3], the “D3 ag [%]” value came to 51% and the “D3 antag [%]” value is given as 38%. Besides, in assay [4], the “D2 ag [%]” value is 45% and the “D2 antag [%]” value was 99%. In addition, in assay [5] (setting [8]), the “5-HT2A ag [%]” value was found to be 7%. The “5-HT2A antag [%]” value in assay [5] (antagonist mode) is listed as 48%. The “5-HT1A ag [%]” value in assay [6] is given as 41%. Also, the “5-HT1A antag [%]” value in assay [6] (antagonist mode) turned out to be 90%.
In the case of `CC(C)(C)c1ccc(S(=O)(=O)NCC2CN(CCOc3cccc4c3OCCO4)C2)cc1` [Compound 181, 4-tert-Butyl-N-[[1-[2-(2,3-dihydro-1,4-benzodioxin-5-yloxy)ethyl]azetidin-3-yl]methyl]benzenesulphonamide], in assay [7], the “5-HT2C ag [%]” value came to 46% and the “5-HT2C antag [%]” value is given as 6%. Further, the “5-HT1A ag [%]” value in assay [6] was 66%.
As to `O=S(=O)(NCC1CN(CCOc2cccc3c2OCCO3)C1)c1ccc(Cl)c(Cl)c1` [Compound 183, 3,4-Dichloro-N-[[1-[2-(2,3-dihydro-1,4-benzodioxin-5-yloxy)ethyl]azetidin-3-yl]methyl]benzenesulphonamide], in assay [7], the “5-HT2C ag [%]” value is given as 50% and the “5-HT2C antag [%]” value is listed as 12%. Further, in assay [4], the “D2 ag [%]” value is on record as 8% and the “D2 antag [%]” value came out at 53%. Also, the “5-HT2A ag [%]” value in assay [5] is recorded as 1%. For the same compound, the “5-HT1A ag [%]” value in assay [6] came to 71%.
For the compound `Cc1c(S(=O)(=O)N[C@H]2CCN(CCCc3noc4cc(F)ccc34)C2)sc2ccc(F)cc12` [Compound 203, 5-Fluoro-N-[(3S)-1-[3-(6-fluoro-1,2-benzoxazol-3-yl)propyl]pyrrolidin-3-yl]-3-methyl-benzothiophene-2-sulphonamide], the “5-HT2C ag [%]” value in assay [7] is 1%. Moreover, the “5-HT6 ag [%]” value in assay [2] is listed as −2%. Moreover, in assay [3], the “D3 ag [%]” value is on record as 11% and the “D3 antag [%]” value amounted to 65%. Besides, in assay [4], the “D2 ag [%]” value is 0% and the “D2 antag [%]” value is 80%. Moreover, the “5-HT2A ag [%]” value in assay [5] (setting [8]) is −1%.
As for `Cc1ccc2sc(S(=O)(=O)N[C@@H]3CCN(CCCc4noc5cc(F)ccc45)C3)cc2c1` [Compound 228, N-[(3R)-1-[3-(6-Fluoro-1,2-benzoxazol-3-yl)propyl]pyrrolidin-3-yl]-5-methyl-benzothiophene-2-sulphonamide], the “5-HT2C ag [%]” value in assay [7] turned out to be 0%. In assay [2], the “5-HT6 ag [%]” value is −2%. For the same compound, in assay [3], the “D3 ag [%]” value was −15% and the “D3 antag [%]” value is listed as 98%. In assay [4], the “D2 ag [%]” value is reported as −1% and the “D2 antag [%]” value is on record as 94%. Moreover, in assay [5] (setting [8]), the “5-HT2A ag [%]” value was 1%.
On to `COc1ccc2cc(S(=O)(=O)N[C@@H]3CCN(CCCc4noc5cc(F)ccc45)C3)ccc2c1` [Compound 230, N-[(3R)-1-[3-(6-Fluoro-1,2-benzoxazol-3-yl)propyl]pyrrolidin-3-yl]-6-methoxy-naphthalene-2-sulphonamide], for which the “5-HT2C ag [%]” value in assay [7] is −2%. In assay [2], the “5-HT6 ag [%]” value was −1%. For the same compound, in assay [3], the “D3 ag [%]” value was determined as 0% and the “D3 antag [%]” value came out at 89%. In assay [4], the “D2 ag [%]” value was determined as 3% and the “D2 antag [%]” value stood at 94%. Also, in assay [5] (setting [8]), the “5-HT2A ag [%]” value is listed as −2%.
